From ChEMBL document CHEMBL1153049, “Identification of aminoethyl pyrrolo dihydroisoquinolinones as novel poly(ADP-ribose) polymerase-1 inhibitors” (Bioorg Med Chem Lett, 2009)
Activity calls are given as the source filed them. The calls are words filed in the database; no cut-off is given here.

Experiments:
[1] = molecular target: Poly [ADP-ribose] polymerase 1 (Homo sapiens, UniProt P09874)
Description: Inhibition of PARP1 in human HeLa cells by microplate scintillation counting

[2] = molecular target: Poly [ADP-ribose] polymerase 2 (Homo sapiens, UniProt Q9UGN5); experiment: Inhibition of human PARP2 expressed in baculovirus system
Poly [ADP-ribose] polymerase 2, sequence (Q9UGN5 whole entry): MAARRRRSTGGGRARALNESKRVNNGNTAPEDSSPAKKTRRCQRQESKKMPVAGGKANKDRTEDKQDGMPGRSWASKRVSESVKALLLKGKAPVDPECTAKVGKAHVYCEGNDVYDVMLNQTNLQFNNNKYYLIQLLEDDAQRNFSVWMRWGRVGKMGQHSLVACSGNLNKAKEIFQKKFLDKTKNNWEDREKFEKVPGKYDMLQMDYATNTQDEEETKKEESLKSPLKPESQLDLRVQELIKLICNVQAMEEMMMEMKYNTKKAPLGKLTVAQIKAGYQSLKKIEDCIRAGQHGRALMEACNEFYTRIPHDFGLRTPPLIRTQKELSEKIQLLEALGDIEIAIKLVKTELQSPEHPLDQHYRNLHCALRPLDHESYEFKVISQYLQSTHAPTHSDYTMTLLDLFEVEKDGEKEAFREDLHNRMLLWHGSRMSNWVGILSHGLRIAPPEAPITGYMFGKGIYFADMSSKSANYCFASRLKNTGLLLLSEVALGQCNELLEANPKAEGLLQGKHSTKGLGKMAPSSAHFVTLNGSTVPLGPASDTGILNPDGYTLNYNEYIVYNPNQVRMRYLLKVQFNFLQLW

[3] = molecular target: T1, Protein mono-ADP-ribosyltransferase PARP3 (Homo sapiens) (UniProt Q9Y6F1); experiment: Inhibition of human PARP3 up to 500 nM
T1 sequence (whole entry): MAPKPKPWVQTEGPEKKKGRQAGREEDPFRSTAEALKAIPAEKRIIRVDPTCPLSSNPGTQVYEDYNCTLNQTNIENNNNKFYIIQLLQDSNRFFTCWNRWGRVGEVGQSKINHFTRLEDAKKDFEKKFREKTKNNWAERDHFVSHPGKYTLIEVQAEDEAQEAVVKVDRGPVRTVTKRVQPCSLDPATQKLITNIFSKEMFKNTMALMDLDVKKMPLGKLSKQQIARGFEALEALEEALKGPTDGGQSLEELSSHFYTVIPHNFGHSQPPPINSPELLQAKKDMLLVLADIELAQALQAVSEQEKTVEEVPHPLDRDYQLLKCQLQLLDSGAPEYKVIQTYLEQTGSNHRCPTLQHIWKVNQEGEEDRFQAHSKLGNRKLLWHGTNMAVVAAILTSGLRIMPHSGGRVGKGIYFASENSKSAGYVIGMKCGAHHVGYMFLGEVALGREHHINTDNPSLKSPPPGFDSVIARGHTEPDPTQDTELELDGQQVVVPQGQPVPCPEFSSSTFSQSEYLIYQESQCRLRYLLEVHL

[4] = molecular target: Protein mono-ADP-ribosyltransferase PARP4 (Homo sapiens) (UniProt Q9UKK3); experiment: Inhibition of human vPARP catalytic domain expressed in Escherichia coli up to 500 nM
Protein mono-ADP-ribosyltransferase PARP4 (Homo sapiens), sequence (Q9UKK3 whole entry, the tested form may be a part): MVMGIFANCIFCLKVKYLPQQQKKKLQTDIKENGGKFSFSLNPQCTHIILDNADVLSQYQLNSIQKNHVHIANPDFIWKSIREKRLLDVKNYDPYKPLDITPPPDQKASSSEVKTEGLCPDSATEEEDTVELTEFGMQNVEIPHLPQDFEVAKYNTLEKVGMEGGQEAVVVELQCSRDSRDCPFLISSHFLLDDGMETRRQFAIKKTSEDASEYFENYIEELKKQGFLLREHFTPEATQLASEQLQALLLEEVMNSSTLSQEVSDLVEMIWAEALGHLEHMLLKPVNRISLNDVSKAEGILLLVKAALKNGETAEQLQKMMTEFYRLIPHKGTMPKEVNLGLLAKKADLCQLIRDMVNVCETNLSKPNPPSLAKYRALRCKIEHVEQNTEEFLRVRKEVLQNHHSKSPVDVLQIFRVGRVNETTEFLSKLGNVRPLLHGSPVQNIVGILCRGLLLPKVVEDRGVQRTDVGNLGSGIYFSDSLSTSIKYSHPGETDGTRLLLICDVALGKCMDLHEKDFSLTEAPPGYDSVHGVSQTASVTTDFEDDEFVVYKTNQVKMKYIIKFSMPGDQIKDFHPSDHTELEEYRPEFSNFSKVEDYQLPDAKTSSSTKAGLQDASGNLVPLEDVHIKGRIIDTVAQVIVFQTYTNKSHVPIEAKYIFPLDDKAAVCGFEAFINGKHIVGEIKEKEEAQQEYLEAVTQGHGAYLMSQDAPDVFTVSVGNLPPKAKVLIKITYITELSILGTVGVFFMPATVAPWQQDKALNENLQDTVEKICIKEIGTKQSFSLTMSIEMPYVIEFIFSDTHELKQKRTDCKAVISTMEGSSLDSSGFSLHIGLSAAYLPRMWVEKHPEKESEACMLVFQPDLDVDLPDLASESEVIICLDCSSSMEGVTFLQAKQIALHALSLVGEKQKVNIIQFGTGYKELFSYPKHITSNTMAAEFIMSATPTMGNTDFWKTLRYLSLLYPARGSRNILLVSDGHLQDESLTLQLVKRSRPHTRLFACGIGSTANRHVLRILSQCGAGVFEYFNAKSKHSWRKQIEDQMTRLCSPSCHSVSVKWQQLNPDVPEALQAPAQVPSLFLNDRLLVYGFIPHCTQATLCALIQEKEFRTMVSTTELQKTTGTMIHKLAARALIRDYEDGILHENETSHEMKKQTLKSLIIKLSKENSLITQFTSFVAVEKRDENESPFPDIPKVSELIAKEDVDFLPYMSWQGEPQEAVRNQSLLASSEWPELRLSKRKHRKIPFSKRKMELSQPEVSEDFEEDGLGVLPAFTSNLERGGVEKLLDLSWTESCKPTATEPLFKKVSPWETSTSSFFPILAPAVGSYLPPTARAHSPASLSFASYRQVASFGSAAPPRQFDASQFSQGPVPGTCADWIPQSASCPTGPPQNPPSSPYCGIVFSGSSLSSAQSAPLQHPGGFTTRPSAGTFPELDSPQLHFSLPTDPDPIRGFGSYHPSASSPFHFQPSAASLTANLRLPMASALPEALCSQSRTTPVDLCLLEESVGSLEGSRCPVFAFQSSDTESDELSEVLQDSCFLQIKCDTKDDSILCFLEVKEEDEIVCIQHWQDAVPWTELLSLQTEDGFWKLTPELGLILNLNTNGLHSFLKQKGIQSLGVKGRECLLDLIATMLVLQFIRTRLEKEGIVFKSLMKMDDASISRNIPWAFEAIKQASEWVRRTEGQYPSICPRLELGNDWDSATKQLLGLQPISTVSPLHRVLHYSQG

[5] = molecular target: T2, Poly [ADP-ribose] polymerase tankyrase-1 (Homo sapiens) (UniProt O95271); experiment: Inhibition of human tankyrase 1 catalytic domain expressed in Escherichia coli up to 500 nM
T2 sequence (whole entry): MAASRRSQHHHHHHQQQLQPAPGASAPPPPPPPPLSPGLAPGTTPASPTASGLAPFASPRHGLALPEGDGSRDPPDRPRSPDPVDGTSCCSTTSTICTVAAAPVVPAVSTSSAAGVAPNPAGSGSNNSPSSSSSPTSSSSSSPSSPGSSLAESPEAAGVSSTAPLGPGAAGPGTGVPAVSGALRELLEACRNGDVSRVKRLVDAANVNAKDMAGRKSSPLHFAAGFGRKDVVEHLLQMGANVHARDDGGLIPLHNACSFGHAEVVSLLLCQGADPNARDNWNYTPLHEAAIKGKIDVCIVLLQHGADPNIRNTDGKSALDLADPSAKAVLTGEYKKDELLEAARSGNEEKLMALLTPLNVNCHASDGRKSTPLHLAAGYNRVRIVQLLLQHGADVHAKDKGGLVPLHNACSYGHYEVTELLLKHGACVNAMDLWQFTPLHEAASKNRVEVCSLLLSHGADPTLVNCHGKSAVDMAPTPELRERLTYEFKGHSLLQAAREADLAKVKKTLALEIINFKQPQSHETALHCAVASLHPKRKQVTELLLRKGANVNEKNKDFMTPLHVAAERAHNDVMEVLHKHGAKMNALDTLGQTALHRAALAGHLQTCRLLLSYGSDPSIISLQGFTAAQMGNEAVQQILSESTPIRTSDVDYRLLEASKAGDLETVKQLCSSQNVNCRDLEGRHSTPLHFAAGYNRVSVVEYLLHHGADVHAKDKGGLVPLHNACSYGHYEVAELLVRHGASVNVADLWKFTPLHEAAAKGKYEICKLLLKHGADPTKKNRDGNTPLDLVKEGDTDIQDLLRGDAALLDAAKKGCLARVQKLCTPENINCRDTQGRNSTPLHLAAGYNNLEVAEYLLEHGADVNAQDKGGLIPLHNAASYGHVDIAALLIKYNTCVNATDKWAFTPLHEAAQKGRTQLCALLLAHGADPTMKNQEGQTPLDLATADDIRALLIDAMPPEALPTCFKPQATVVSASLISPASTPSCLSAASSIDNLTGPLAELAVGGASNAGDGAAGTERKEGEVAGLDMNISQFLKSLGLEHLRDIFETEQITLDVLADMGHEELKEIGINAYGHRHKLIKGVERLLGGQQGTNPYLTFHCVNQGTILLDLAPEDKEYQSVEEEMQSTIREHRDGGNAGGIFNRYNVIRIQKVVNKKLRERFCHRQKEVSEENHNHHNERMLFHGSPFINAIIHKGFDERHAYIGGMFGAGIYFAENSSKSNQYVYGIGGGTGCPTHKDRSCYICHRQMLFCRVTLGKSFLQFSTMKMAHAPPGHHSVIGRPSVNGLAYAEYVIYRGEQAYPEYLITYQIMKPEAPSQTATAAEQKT

Poly [ADP-ribose] polymerase 1, sequence (P09874 whole entry): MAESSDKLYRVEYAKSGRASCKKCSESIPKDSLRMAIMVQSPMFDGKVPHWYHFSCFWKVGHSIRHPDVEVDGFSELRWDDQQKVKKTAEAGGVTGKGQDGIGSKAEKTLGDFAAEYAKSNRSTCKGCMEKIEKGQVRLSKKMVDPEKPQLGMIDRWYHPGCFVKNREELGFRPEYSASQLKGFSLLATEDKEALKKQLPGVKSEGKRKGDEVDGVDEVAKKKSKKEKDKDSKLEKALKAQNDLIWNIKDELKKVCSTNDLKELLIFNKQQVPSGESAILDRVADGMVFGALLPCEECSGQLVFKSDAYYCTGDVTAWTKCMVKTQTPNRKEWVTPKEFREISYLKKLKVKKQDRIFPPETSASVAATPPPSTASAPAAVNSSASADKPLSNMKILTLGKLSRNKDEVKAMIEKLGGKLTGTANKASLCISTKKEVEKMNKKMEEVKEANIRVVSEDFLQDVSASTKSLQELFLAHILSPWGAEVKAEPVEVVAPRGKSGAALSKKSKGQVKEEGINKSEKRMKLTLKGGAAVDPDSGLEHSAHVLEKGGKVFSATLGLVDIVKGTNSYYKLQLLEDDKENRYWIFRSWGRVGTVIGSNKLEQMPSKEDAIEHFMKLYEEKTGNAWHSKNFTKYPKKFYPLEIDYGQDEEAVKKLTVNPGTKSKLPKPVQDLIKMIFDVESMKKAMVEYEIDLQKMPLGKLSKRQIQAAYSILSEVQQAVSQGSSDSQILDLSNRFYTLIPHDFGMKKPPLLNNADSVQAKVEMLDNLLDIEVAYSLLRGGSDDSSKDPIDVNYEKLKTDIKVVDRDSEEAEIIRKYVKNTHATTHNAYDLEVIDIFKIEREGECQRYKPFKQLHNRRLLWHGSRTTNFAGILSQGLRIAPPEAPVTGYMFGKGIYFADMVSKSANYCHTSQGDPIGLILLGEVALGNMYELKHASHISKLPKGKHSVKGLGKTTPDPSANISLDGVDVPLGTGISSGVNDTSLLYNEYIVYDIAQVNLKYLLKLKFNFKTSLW

| SMILES | IC50 [1] [nM] | IC50 [2] [nM] | inhibition [3] | inhibition [4] | inhibition [5] |
| --- | --- | --- | --- | --- | --- |
| Cn1cc(CNCCc2c[nH]c3ccc4c(c23)CCNC4=O)cn1 | > 500 |  |  |  |  |
| O=C1NCCc2c1ccc1[nH]cc(CCNC(=O)N3CCNCC3)c21 | 25 | 32 | inactive | inactive | inactive |
| O=C1NCCc2c1ccc1[nH]cc(CCNC(=O)N3CCCNCC3)c21 | 27 | 17 | inactive | inactive | inactive |
| O=C1NCCc2c1ccc1[nH]cc(CCNCc3cccc4cccnc34)c21 | > 500 |  |  |  |  |
